Data: patent publication EP0792649A1, “Treatment of sleep disorders” (ELI LILLY AND COMPANY, priority 1996, dated 1997)

How the values were obtained:
Type in all cases: in vivo, Sprague-Dawley rats
DA = assay: Microdialysis assays of monoamines: DA level in hypothalamus dialysate of conscious rats
Protocol: (§1) The tests were carried out as follows.
(§2) Sprague-Dawley rats (Harlan or Charles River) weighing 270-300 grams were surgically implanted with microdialysis probes under chloral hydrate/pentobarbital anesthesia (170 and 36 mg/kg i.p. in 30% propylene glycol, 14% ethanol) (Perry and Fuller, Effect of fluoxetine on serotonin and dopamine concentration in rat hypothalamus after administration of fluoxetine plus L-5-hydroxytryptophan, Life Sci., 50, 1683-90 (1992)). A David Kopf stereotaxic instrument was used to implant the probe unilaterally in the hypothalamus at coordinates rostral -1.5 mm, lateral -1.3 mm, and ventral -9.0 mm (Paxinos and Watson, 1986). After a 48 hour recovery period, rats were placed in a large plastic bowl with a mounted liquid swivel system (CMA/120 system for freely moving animals, Bioanalytical Systems, West Lafayette, IN). Filtered artificial cerebrospinal fluid (CSF) (150 mM NaCl, 3.0 mM KCl, 1.7 mM CaCl2, and 0.9 mM MgCl2) was perfused through the probe at a rate of 1.0 µl/min. The output dialysate line was fitted to a tenport HPLC valve with a 20 µl loop. At the end of each 30 minute sampling period, dialysate collected in the loop was injected on an analytical column (Spherisorb 3 µ ODS2, 2X150 mm, Keystone Scientific).
(§3) The method used to measure monoamines was as described by Perry and Fuller (1993). Briefly, dialysate collected in the 20 µl loop was assayed for 5-HT, NE and DA. The 20 µl injection went onto the column with a mobile phase which resolved NE, DA, and 5-HT: 75 mM potassium acetate, 0.5 mM ethylenediaminetetraacetic acid, 1.4 mM sodium octanesulfonic acid and 8% methanol, pH 4.9. The mobile phase for the amine column was delivered with a flow programmable pump at an initial flow rate of 0.2 ml/min increasing to 0.3 ml/min at 5 min then decreasing back to 0.2 ml/min at 26 min with a total run time of 30 min. Flow programming was used to elute the 5-HT within a 25 min time period. The electrochemical detector (EG&G, Model 400) for the amine column was set at a potential of 400 mV and a sensitivity of 0.2 nA/V. The data was collected and analyzed with a Hewlett-Packard HP1000 chromatography system which measured peak heights and calculated sample concentrations. Basal levels were measured for at least 90 minutes prior to drug administration.
(§4) Extracellular levels of the amines in microdialysates were calculated by comparing peak heights with those of 50 pmole standards. The mean value of the four samples immediately preceding drug administration served as the basal level for each experiment and data was converted to percent of basal. Paired t-tests were used to compare the mean of the basal values from the time point immediately preceding drug administration to those of each time point thereafter.
(§5) The rats were prepared as described above, and the indole was administered subcutaneously at 3 mg/kg 100 minutes after the start of the experiment. Fluoxetine was administered intraperitoneally at 10 mg/kg, together with a second dose of the indole at 3 mg/kg, 210 minutes after the start of the experiment. Each data point reported here represents a single animal.
(§6) The results are shown below as percent of baseline of the three monoamines, at various times after the start of the experiment. Each data point represents the average of three or more animals.
(§7) This test was carried out as described in Test 1, using 4-(2-hydroxy-3-cyclohexylaminopropoxy)indole, maleate, at 3 mg/kg administered at 120 minutes, and (+)-duloxetine, hydrochloride, at 4 mg/kg administered with a second dose of the indole at 3 mg/kg, at 270 minutes. Results are reported as in Test 2 above. The 5-HT results are the average of three animals, and the other results are the average of four animals.

NE = assay: Microdialysis assays of monoamines: NE level in hypothalamus dialysate of conscious rats
Protocol: as §1, §2, §3, §4, §5, §6, §7

5-HT = assay: Microdialysis assays of monoamines: 5-HT level in hypothalamus dialysate of conscious rats; conditions: for 5-HT level measured in the dialysate, % of baseline: Test 1, single animal; for 5-HT, percent of baseline: Test 3, average of three animals
Protocol: as §1, §2, §3, §4, §5, §6, §7

[1] = Test 2, 120 min (time of first (-)-pindolol dose, 5 mg/kg), average of three or more animals
[2] = Test 2, 150 min, (-)-pindolol 5 mg/kg at 120 min, average of three or more animals
[3] = Test 2, 180 min, (-)-pindolol 5 mg/kg at 120 min, average of three or more animals
[4] = Test 2, 210 min, (-)-pindolol 5 mg/kg at 120 min, average of three or more animals
[5] = Test 3, 120 min (time of first indole dose, 3 mg/kg), average of four animals
[6] = Test 3, 150 min, the indole 3 mg/kg at 120 min, average of four animals
[7] = Test 3, 180 min, the indole 3 mg/kg at 120 min, average of four animals
[8] = Test 3, 210 min, the indole 3 mg/kg at 120 min, average of four animals
[9] = Test 3, 240 min, the indole 3 mg/kg at 120 min, average of four animals
[10] = Test 3, 270 min, the indole 3 mg/kg at 120 min, average of four animals

## CC(C)NCC(O)COc1cccc2[nH]ccc12 (single isomer, unassigned; (-)) [(-)-pindolol, 4-(2-hydroxy-3-isopropylaminopropoxy)-indole]
DA; [1]
  DA, percent of baseline: 90%
DA; [2]
  DA, percent of baseline: 90%
DA; [3]
  DA, percent of baseline: 70%
DA; [4]
  DA, percent of baseline: 100%
NE; [1]
  NE, percent of baseline: 90%
NE; [2]
  NE, percent of baseline: 100%
NE; [3]
  NE, percent of baseline: 120%
NE; [4]
  NE, percent of baseline: 110%

## O=C(O)/C=C\C(=O)O.OC(CNC1CCCCC1)COc1cccc2[nH]ccc12 (centres unmarked) [4-(2-hydroxy-3-cyclohexylaminopropoxy)indole, maleate]
5-HT; 210 min after start, the indole 3 mg/kg s.c. at 100 min
  5-HT level measured in the dialysate, % of baseline: about 80%
5-HT; lowest level after the indole 3 mg/kg s.c. at 100 min
  5-HT level measured in the dialysate, % of baseline: about 50%
5-HT; 120 min (time of first indole dose, 3 mg/kg)
  5-HT, percent of baseline: 90%
5-HT; 150 min, the indole 3 mg/kg at 120 min
  5-HT, percent of baseline: 130%
5-HT; 180 min, the indole 3 mg/kg at 120 min
  5-HT, percent of baseline: 130%
5-HT; 210 min, the indole 3 mg/kg at 120 min
  5-HT, percent of baseline: 80%
5-HT; 240 min, the indole 3 mg/kg at 120 min
  5-HT, percent of baseline: 90%
5-HT; 270 min, the indole 3 mg/kg at 120 min
  5-HT, percent of baseline: 80%
DA; Test 1, 120 min, the indole 3 mg/kg s.c. at 100 min, single animal
  DA level, % of baseline: about 210%
DA; Test 1, 210 min, the indole 3 mg/kg s.c. at 100 min, single animal
  DA level, relative to baseline: near baseline
DA; [5]
  DA, percent of baseline: 70%
DA; [6]
  DA, percent of baseline: 150%
DA; [7]
  DA, percent of baseline: 130%
DA; [8]
  DA, percent of baseline: 110%
DA; [9]
  DA, percent of baseline: 100%
DA; [10]
  DA, percent of baseline: 110%
NE; Test 1, by 210 min, the indole 3 mg/kg s.c. at 100 min, single animal
  NE level, relative to baseline: nearly to baseline
NE; Test 1, highest level after the indole 3 mg/kg s.c. at 100 min, single animal
  NE level, % of baseline: about 180%
NE; [5]
  NE, percent of baseline: 100%
NE; [6]
  NE, percent of baseline: 160%
NE; [7]
  NE, percent of baseline: 140%
NE; [8]
  NE, percent of baseline: 140%
NE; [9]
  NE, percent of baseline: 130%
NE; [10]
  NE, percent of baseline: 150%
